This assay has as its target EZH2 (Homo sapiens (Human), UniProt Q15910). The experiment in a line: E-cadherin promoter luciferase reporter gene primary screening in 293T cells. The format is cell-based. The following applies: 293T cells treated for 24 hours, Dual-Glo luciferase; for 1 μM relative fluorescence intensity: compound 1 μM; for 10 μM relative fluorescence intensity: compound 10 μM; for 3 μM relative fluorescence intensity: compound 3 μM. The source says: EZH2 suppresses the expression of downstream E-cadherin, and upon EZH2 suppression, expression of E-cadherin will increase. Based on such principle, a reporter gene expression vector was constructed using luciferase.
The amplified fragments after PCR and the PGL4.1 vector (purchased from TAKARA, Japan) were respectively subjected to enzyme digestion with SacI and BglII (purchased from TAKARA, Japan), and then purified with PCR cleanup kit (Axygen PCR cleanup kit). Subsequently, the purified and enzyme-digested PCR products was ligated to the purified and enzyme-digested PGL4.1 vector using ligase solution I (DNA Ligation Kit Ver.2.1, purchased from TAKARA, Japan), and subjected to transformation. Single clones were then screened out and subjected to sequencing, and the obtained positive plasmid containing promoter fragments of Ecadherin was named E-cadherin RE-PGL4.1.
Meanwhile, a Renilla fluorescent vector was constructed using PCDNA4.1 (purchased from Thermofisher, USA) as the template to amplify the fragment of CMV promoter. After enzymatic digestion of the amplified CMV sequences and pGL4.70 vector (purchased from Promega, USA) with KpnI and XhoI (purchased from Promega, USA), purification was conducted with PCR cleanup kit (Axygen PCR cleanup kit). Then the enzyme-digested PCR product was ligated to the enzyme-digested PGL4.70 vector using ligase solution I (DNA Ligation Kit Ver.2.1, purchased from TAKARA, Japan) and the resultant was subjected to transformation. Subsequently single clones were screened and subjected to sequencing, and the obtained plasmid that contained CMV sequence was named as Plasmid Renilla luciferase-pGL4.70. Said plasmid utilized CMV promoter to achieve high expression of Renilla luciferase, which served as the control fluorescence for the primary screening system.
The cells were firstly added with 20 μL Dual-Glo® Luciferase Assay Reagent, then incubated under room temperature for 10 minutes, and read on microplate reader Spectramax i3 (Molecular Devices, USA) to obtain the data of primary screening, which is shown in Table 1.
(In a reporter assay the amount or activity of a reporter protein is the signal.)

EZH2, sequence (Q15910 whole entry, the tested form may be a part): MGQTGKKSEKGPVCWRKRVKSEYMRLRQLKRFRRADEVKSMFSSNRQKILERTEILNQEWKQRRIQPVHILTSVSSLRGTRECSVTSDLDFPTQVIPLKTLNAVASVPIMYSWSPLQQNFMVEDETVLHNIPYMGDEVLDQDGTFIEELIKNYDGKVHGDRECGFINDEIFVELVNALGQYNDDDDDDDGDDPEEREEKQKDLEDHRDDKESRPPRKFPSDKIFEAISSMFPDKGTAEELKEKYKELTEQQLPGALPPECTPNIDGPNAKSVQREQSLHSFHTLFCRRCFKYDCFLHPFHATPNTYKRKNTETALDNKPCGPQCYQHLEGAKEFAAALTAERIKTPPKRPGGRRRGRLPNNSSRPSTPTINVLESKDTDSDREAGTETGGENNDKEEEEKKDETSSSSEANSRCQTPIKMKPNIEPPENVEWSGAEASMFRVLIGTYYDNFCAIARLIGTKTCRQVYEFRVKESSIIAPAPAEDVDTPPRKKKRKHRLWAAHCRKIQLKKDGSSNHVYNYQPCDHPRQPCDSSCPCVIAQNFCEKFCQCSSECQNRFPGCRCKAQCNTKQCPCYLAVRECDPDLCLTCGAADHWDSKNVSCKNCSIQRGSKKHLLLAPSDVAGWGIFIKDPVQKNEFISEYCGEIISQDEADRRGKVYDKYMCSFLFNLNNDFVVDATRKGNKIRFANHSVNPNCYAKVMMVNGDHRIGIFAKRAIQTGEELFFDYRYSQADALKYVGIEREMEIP
EZH2, sequence (O75530 whole entry partner, the tested form may be a part): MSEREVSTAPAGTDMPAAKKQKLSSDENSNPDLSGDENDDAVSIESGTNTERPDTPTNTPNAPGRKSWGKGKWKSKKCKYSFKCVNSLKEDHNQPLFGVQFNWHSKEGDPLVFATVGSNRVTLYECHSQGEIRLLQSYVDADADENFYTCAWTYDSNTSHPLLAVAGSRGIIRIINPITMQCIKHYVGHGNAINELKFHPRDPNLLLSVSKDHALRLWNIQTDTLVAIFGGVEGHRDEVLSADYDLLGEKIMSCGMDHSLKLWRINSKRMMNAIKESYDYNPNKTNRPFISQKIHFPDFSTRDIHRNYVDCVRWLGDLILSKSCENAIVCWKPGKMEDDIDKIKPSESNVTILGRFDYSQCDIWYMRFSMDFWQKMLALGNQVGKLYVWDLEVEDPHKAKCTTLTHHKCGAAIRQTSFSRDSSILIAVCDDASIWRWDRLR
EZH2, sequence (Q15022 whole entry partner, the tested form may be a part): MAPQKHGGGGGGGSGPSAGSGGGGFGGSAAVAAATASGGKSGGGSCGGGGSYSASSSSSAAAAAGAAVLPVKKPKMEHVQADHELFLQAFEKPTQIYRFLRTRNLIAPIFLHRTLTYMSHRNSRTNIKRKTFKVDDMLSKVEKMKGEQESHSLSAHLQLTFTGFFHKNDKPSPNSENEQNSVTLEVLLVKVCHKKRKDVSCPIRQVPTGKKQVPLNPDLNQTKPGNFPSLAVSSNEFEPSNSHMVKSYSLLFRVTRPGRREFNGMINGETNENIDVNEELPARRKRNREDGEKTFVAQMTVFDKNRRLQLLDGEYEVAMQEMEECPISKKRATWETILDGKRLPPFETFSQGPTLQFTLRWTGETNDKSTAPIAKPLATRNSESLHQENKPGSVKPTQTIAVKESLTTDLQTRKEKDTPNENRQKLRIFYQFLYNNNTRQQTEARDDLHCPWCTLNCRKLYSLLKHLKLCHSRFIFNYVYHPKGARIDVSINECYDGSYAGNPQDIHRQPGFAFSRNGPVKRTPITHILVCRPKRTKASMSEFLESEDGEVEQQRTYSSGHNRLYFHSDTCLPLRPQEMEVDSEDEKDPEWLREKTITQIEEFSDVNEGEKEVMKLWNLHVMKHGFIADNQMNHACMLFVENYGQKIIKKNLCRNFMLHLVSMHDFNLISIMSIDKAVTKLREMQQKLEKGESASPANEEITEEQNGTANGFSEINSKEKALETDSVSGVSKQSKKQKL
EZH2, sequence (Q09028 whole entry partner, the tested form may be a part): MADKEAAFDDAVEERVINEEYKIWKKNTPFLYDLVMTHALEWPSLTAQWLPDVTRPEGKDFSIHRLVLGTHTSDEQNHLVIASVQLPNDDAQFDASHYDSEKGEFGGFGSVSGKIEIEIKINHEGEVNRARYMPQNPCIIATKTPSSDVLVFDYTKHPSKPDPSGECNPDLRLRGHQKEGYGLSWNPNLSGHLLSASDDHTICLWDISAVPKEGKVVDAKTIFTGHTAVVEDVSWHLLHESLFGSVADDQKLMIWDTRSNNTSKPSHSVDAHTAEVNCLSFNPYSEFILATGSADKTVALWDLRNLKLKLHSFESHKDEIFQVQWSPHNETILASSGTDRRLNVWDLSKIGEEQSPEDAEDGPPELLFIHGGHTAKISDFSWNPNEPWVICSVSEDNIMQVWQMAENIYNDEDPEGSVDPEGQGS

Regarding `CCN(C(=O)C1CCCC1)c1cc(-c2ccc(N3CCN(CC4CC4)CC3)nc2)cc(C(=O)NCc2c(C)cc(C)[nH]c2=O)c1C` [Compound 15, 5-(6-(4-(cyclopropylmethyl)piperazin-1-yl)pyridin-3-yl)-N-((4,6-dimethyl-2-oxo-1,2-dihydropyridin-3-yl)methyl)-3-(N-ethylcyclopentanecarboxamido)-2-methylbenzamide], the “1 μM relative fluorescence intensity” value came to 262.61 and the “10 μM relative fluorescence intensity” value is 335.61.
For the compound `CCN(C(=O)C1CCCC1)c1cc(-c2ccnc(N3CCN(C)CC3)c2)cc(C(=O)NCc2c(C)cc(C)[nH]c2=O)c1C` [Compound 17, N-((4,6-dimethyl-2-oxo-1,2-dihydropyridin-3-yl)methyl)-3-(N-ethylcyclopentanecarboxamido)-2-methyl-5-(2-(4-methylpiperazin-1-yl)pyridin-4-yl)benzamide], the “1 μM relative fluorescence intensity” value was 172, the “3 μM relative fluorescence intensity” value was 223 and the “10 μM relative fluorescence intensity” value came to 303.
On the same counts, the results for `CCN(C(=O)C1CCCC1)c1cc(-c2ccc(N3CCN(C(C)C)CC3)nc2)cc(C(=O)NCc2c(C)cc(C)[nH]c2=O)c1C` [Compound 18, N-((4,6-dimethyl-2-oxo-1,2-dihydropyridin-3-yl)methyl)-3-(N-ethylcyclopentanecarboxamido)-5-(6-(4-isopropylpiperazin-1-yl)pyridin-3-yl)-2-methylbenzamide] are 289, 356 and 423.
Turning to `CCN(C(=O)C1CCCC1)c1cc(-c2ccc(C#N)c(F)c2)cc(C(=O)NCc2c(C)cc(C)[nH]c2=O)c1C` [Compound 19, 4′-cyano-N-((4,6-dimethyl-2-oxo-1,2-dihydropyridin-3-yl)methyl)-5-(N-ethylcyclopentanecarboxamido)-3′-fluoro-4-methyl-[1,1′-diphenyl]-3-carboxamide], the “1 μM relative fluorescence intensity” value is listed as 189, the “3 μM relative fluorescence intensity” value amounted to 228 and the “10 μM relative fluorescence intensity” value was 310.
In the case of `CCN(C(=O)C1CCCC1)c1cc(-c2ccc(C(=O)N3CCOCC3)cc2)cc(C(=O)NCc2c(C)cc(C)[nH]c2=O)c1C` [Compound 20, N-((4,6-dimethyl-2-oxo-1,2-dihydropyridin-3-yl)methyl)-5-(N-ethylcyclopentanecarboxamido)-4-methyl-4′-(morpholin-4-carbonyl)-[1,1′-diphenyl]-3-carboxamide], the “1 μM relative fluorescence intensity” value turned out to be 193, the “3 μM relative fluorescence intensity” value amounted to 213 and the “10 μM relative fluorescence intensity” value was 227.
Take `CCN(C(=O)C1CCCC1)c1cc(-c2ccc(N3CCOCC3)cc2)cc(C(=O)NCc2c(C)cc(C)[nH]c2=O)c1C` [Compound 21, N-((4,6-dimethyl-2-oxo-1,2-dihydropyridin-3-yl)methyl)-5-(N-ethylcyclopentanecarboxamido)-4-methyl-4′-morpholinyl-[1,1′-diphenyl]-3-carboxamide]: the “1 μM relative fluorescence intensity” value turned out to be 170, the “3 μM relative fluorescence intensity” value stood at 225 and the “10 μM relative fluorescence intensity” value worked out at 339.
On the same counts, the results for `CCN(C(=O)C1CCCC1)c1cc(-c2ccc(CC(=O)N3CCOCC3)cc2)cc(C(=O)NCc2c(C)cc(C)[nH]c2=O)c1C` [Compound 22, N-((4,6-dimethyl-2-oxo-1,2-dihydropyridin-3-yl)methyl)-5-(N-ethylcyclopentanecarboxamido)-4-methyl-4′-(2-morpholinyl-2-oxoethyl)-[1,1′-diphenyl]-3-carboxamide] are 171, 194 and 242.
In the case of `CCN1CCN(Cc2ccc(-c3cc(C(=O)NCc4c(C)cc(C)[nH]c4=O)c(C)c(N(CC)C(=O)C4CCCC4)c3)cc2)CC1` [Compound 23, N-((4,6-dimethyl-2-oxo-1,2-dihydropyridin-3-yl)methyl)-5-(N-ethylcyclopentanecarboxamido)-4′-((4-ethylpiperazin-1-yl)methyl)-4-methyl-[1,1′-diphenyl]-3-carboxamide], the “1 μM relative fluorescence intensity” value is 290, the “3 μM relative fluorescence intensity” value worked out at 346 and the “10 μM relative fluorescence intensity” value stood at 343.
Consider `CCN1CCN(c2ccc(-c3cc(C(=O)NCc4c(C)cc(C)[nH]c4=O)c(C)c(N(CC)C(=O)C4CCCC4)c3)cc2)CC1` [Compound 27, N-((4,6-dimethyl-2-oxo-1,2-dihydropyridin-3-yl)methyl)-5-(N-ethylcyclopentanecarboxamido)-4′-(4-ethylpiperazin-1-yl)-4-methyl-[1,1′-diphenyl]-3-carboxamide], for which the “1 μM relative fluorescence intensity” value is on record as 204.86 and the “10 μM relative fluorescence intensity” value is on record as 335.96.
Regarding `CCN(C(=O)C1CCCC1)c1cc(-c2ccc(NS(=O)(=O)C3CC3)cc2)cc(C(=O)NCc2c(C)cc(C)[nH]c2=O)c1C` [Compound 28, 4′-(cyclopropanesulfonamide)-N-((4,6-dimethyl-2-oxo-1,2-dihydropyridin-3-yl)methyl)-5-(N-ethylcyclopentanecarboxamido)-4-methyl-[1,1′-diphenyl]-3-carboxamide], the “1 μM relative fluorescence intensity” value is 163.93 and the “10 μM relative fluorescence intensity” value stood at 345.23.
Turning to `CCN(C(=O)C1CCCC1)c1cc(-c2ccc(OCCCN3CCOCC3)cc2)cc(C(=O)NCc2c(C)cc(C)[nH]c2=O)c1C` [Compound 30, N-((4,6-dimethyl-2-oxo-1,2-dihydropyridin-3-yl)methyl)-5-(N-ethylcyclopentanecarboxamido)-4-methyl-4′-(3-morpholinopropoxy)-[1,1′-diphenyl]-3-carboxamide], the “1 μM relative fluorescence intensity” value is on record as 253.44 and the “10 μM relative fluorescence intensity” value is given as 231.21.
For the compound `CCN(C(=O)C1CCCC1)c1cc(C(N)=O)cc(C(=O)NCc2c(C)cc(C)[nH]c2=O)c1C` [Compound 34, N^1-((4,6-dimethyl-2-oxo-1,2-dihydropyridin-3-yl)methyl)-5-(N-ethylcyclopentanecarboxamido)-6-methyl-isophthalamide], the “1 μM relative fluorescence intensity” value is 98.36 and the “10 μM relative fluorescence intensity” value amounted to 109.72.
For `CCN(C(=O)C1CCCC1)c1cc(-c2ccc(CN3CCNC[C@H]3CO)cc2)cc(C(=O)NCc2c(C)cc(C)[nH]c2=O)c1C` [Compound 35], the “1 μM relative fluorescence intensity” value is reported as 83.82 and the “10 μM relative fluorescence intensity” value is listed as 123.19.
Take `CCN(C(=O)C1CCCC1)c1cc(-c2ccc(N3CCN(C)CC3)nc2)cc(C(=O)NCc2c(C)cc(C)[nH]c2=O)c1C` [Compound 36, N-((4,6-dimethyl-2-oxo-1,2-dihydropyridin-3-yl)methyl)-3-(N-ethylcyclopentanecarboxamido)-2-methyl-5-(6-(4-methylpiperazin-1-yl)pyridin-3-yl)benzamide]: the “1 μM relative fluorescence intensity” value is given as 211.26 and the “10 μM relative fluorescence intensity” value came out at 312.36.
As for `CCN(C(=O)C1CCCC1)c1cc(-c2ccc(N3CCC(N)CC3)nc2)cc(C(=O)NCc2c(C)cc(C)[nH]c2=O)c1C` [Compound 37, 5-(6-(4-aminopiperidin-1-yl)pyridin-3-yl)-N-((4,6-dimethyl-2-oxo-1,2-dihydropyridin-3-yl)methyl)-3-(N-ethylcyclopentanecarboxamido)-2-methylbenzamide], the “1 μM relative fluorescence intensity” value came to 163.93 and the “10 μM relative fluorescence intensity” value is 345.23.
